Among the data in US8071797B2 (priority 2008, dated 2011) are IC50 values, retold here.

This test concerns the target T1, HCV polymerase (NS5B570n-Con1) (Hepatitis C virus genotype 1b, UniProt Q9WMX2).
T1 construct: contains a 21 amino acid deletion at the C-terminus relative to the full-length HCV polymerase; 6-histidine (N); made in house; host or cells: E. coli BL21 (DE) pLysS
The test is described as follows: HCV NS5B RNA polymerase activity assay. Type of test: biochemical, HCV Con1 strain. The following applies: IC50 NS5B polymerase assay, Table I. How it is done: The enzymatic activity of HCV polymerase (NS5B570n-Con1) was measured as the incorporation of radiolabeled nucleotide monophosphates into acid insoluble RNA products. Unincorporated radiolabeled substrate was removed by filtration and scintillant was added to the washed and dried filter plate containing radiolabeled RNA product. The amount of RNA product generated by NS5B570-Con1 at the end of the reaction was directly proportional to the amount of light emitted by the scintillant.
The N-terminal 6-histidine tagged HCV polymerase, derived from HCV Con1 strain, genotype 1b (NS5B570n-Con1) contains a 21 amino acid deletion at the C-terminus relative to the full-length HCV polymerase and was purified from E. coli strain BL21 (DE) pLysS. The construct, containing the coding sequence of HCV NS5B Con1 (GenBank accession number AJ242654) was inserted into the plasmid construct pETI 7b, downstream of a T7 promoter expression cassette and transformed into E. coli. A single colony was grown overnight as a starter culture and later used inoculate 10 L of LB media supplemented with 100 μg/mL ampicillin at 37° C. Protein expression was induced by the addition of 0.25 mM isopropyl-β-D-thiogalactopyranoside (IPTG) when optical density at […] of the culture was between 0.6 and 0.8 and cells were harvested after 16 to 18 h at 30° C. NS5B570n-Con1 was purified to homogeneity using a three-step protocol including subsequent column chromatography on Ni-NTA, SP-Sepharose HP and Superdex 75 resins.
Each 50 μl enzymatic reaction contained 20 nM RNA template derived from the complementary sequence of the Internal Ribosome Entry Site (cIRES), 20 nM NS5B570n-Con1 enzyme, 0.5 μCi of tritiated UTP (Perkin Elmer catalog no. TRK-412; specific activity: 30 to 60 Ci/mmol; stock solution concentration from 7.5×10^-5 M to 20.6×10^-6 M), 1 μM each ATP, CTP, and GTP, 40 mM Tris-HCl pH 8.0, 40 mM NaCl, 4 mM DTT (dithiothreitol), 4 mM MgCl2, and 5 μl of compound serial diluted in DMSO. Reaction mixtures were assembled in 96-well filter plates (cat #MADVN0B, Millipore Co.) and incubated for 2 h at 30° C. Reactions were stopped by addition of 10% final (v/v) trichloroacetic acid and incubated for 40 min at 4° C. Reactions were filtered, washed with 8 reaction volumes of 10% (v/v) trichloroacetic acetic acid, 4 reaction volumes of 70% (v/v) ethanol, air dried, and 25 μl of scintillant (Microscint 20, Perkin-Elmer) was added to each reaction well.
The amount of light emitted from the scintillant was converted to counts per minute (CPM) on a Topcount® plate reader (Perkin-Elmer, Energy Range: Low, Efficiency Mode Normal, Count Time: 1 min, Background Subtract: none, Cross talk reduction: Off).
Data was analyzed in Excel® (Microsoft®) and ActivityBase® (idbsg). The reaction in the absence of enzyme was used to determine the background signal, which was subtracted from the enzymatic reactions. Positive control reactions were performed in the absence of compound, from which the background corrected activity was set as 100% polymerase activity. All data was expressed as a percentage of the positive control. The compound concentration at which the enzyme-catalyzed rate of RNA synthesis was reduced by 50% (IC50) was calculated by fitting
[formula] equation (t) to the data.where “Y” corresponds to the relative enzyme activity (in %), “% Min” is the residual relative activity at saturating compound concentration, “% Max” is the relative maximum enzymatic activity, “X” corresponds to the compound concentration, and “S” is the Hill coefficient (or slope).
What is called IC50 is the midpoint of a concentration-inhibition curve. Read a low IC50 as greater potency in that assay. On to `CCc1cc2c(C(=O)NC)c(-c3ccc(Oc4ccc(F)cc4)cc3)oc2cc1N(C)S(C)(=O)=O` [Compound I-52], for which half-maximal inhibition (IC50) required 128 nM. This lies in the sub-micromolar range.
The molecule `CNC(=O)c1c(-c2ccc(Oc3ccc(F)cc3)cc2)oc2cc(N(CCN)S(C)(=O)=O)c(OC)cc12` [Compound I-53] returned an IC50 of 250 nM.
The value for `CNC(=O)c1c(-c2ccc(Oc3ccc(F)cc3)cc2)oc2cc(N(CCN)C(C)=O)c(OC)cc12` [Compound I-54] was 1240 nM; that for `CNC(=O)c1c(-c2ccc(Oc3ccc(F)cc3)cc2)oc2cc(N(CCO)S(C)(=O)=O)c(C)cc12` [Compound I-55] was 44 nM.
For the molecule `CNC(=O)c1c(-c2ccc(Oc3ccc(F)cc3)cc2)oc2cc(N(CC3CCOCC3)S(C)(=O)=O)c(C3CC3)cc12` [Compound I-56], inhibition was half-maximal at 157 nM (IC50).
To `CNC(=O)c1c(-c2ccc(Oc3ccc(F)cc3)cc2)oc2cc(N(CCOC)S(C)(=O)=O)c(C3CC3)cc12` [Compound I-57] belongs 110 nM; to `CNC(=O)c1c(-c2ccc(Oc3ccc(F)cc3F)cc2)oc2cc(N(CCO)S(C)(=O)=O)c(C3CC3)cc12` [Compound I-58], 85 nM; to `CNC(=O)c1c(-c2ccc(Oc3ccccc3F)cc2)oc2cc(N(C)S(C)(=O)=O)c(C)cc12` [Compound I-59, 2-[4-(2-Fluoro-phenoxy)-phenyl]-6-(methanesulfonyl-methyl-amino)-5-methyl-benzofuran-3-carboxylic acid methylamide], 93 nM.
As for `CNC(=O)c1c(-c2ccc(Oc3ccc(F)cc3)cc2)oc2cc(N(CC3CCOC3)S(C)(=O)=O)c(C3CC3)cc12` (centres unmarked) [Compound I-60], 115 nM corresponded to half-maximal inhibition (IC50).
The value for `CNC(=O)c1c(-c2ccc(Oc3ccccc3F)cc2)oc2cc(N(CCO)S(C)(=O)=O)c(C3CC3)cc12` [Compound I-61] was 35 nM.
To `CNC(=O)c1c(-c2ccc(Nc3ccc(F)cc3)cc2)oc2cc(N(CCO)S(C)(=O)=O)c(C3CC3)cc12` [Compound I-62] belongs 13 nM; to `CCCc1cc2c(C(=O)NC)c(-c3ccc(Oc4ccccc4F)cc3)oc2cc1N(CCO)S(C)(=O)=O` [Compound I-65, 2-[4-(2-Fluoro-phenoxy)-phenyl]-6-[(2-hydroxy-ethyl)-methanesulfonyl-amino]-5-propyl-benzofuran-3-carboxylic acid methylamide], 21 nM; to `CNC(=O)c1c(-c2ccc(Oc3ccc(F)cc3)cc2)oc2cc(N(C)S(C)(=O)=O)c(Cl)cc12` [Compound I-66], 29 nM.
`CNC(=O)c1c(-c2ccc(Oc3ccc(F)cc3)cc2)oc2cc(N(CC(C)O)S(C)(=O)=O)c(C3CC3)cc12` (centres unmarked) [Compound I-68] returned an IC50 of 26 nM.
To `CNC(=O)c1c(-c2ccc(Oc3ccc(F)cc3)cc2)oc2cc(N(CC3COC3)S(C)(=O)=O)c(C3CC3)cc12` [Compound I-70, 5-Cyclopropyl-2-[4-(4-fluoro-phenoxy)-phenyl]-6-(methanesulfonyl-oxetan-3-ylmethyl-amino)-benzofuran-3-carboxylic acid methylamide] belongs 13 nM.
The value for `CNC(=O)c1c(-c2ccc(Oc3ccc(F)cc3)cc2)oc2cc(N(Cc3ccncc3)S(C)(=O)=O)c(C3CC3)cc12` [Compound I-71] was 9 nM; that for `CNC(=O)c1c(-c2ccc(Oc3ccc(F)cc3)cc2)oc2cc(N(C3CCOCC3)S(C)(=O)=O)c(C3CC3)cc12` [Compound I-72] was 591 nM.
The value for `CNC(=O)c1c(-c2ccc(Oc3ccc(F)cc3)cc2)oc2cc(N(CC(N)=O)S(C)(=O)=O)c(C3CC3)cc12` [Compound I-73] was 56 nM.
In turn, `CNC(=O)c1c(-c2ccc(Oc3ccc(F)cc3)cc2)oc2cc(N(C3CNC3)S(C)(=O)=O)c(C3CC3)cc12` [Compound I-75] yielded an IC50 of 300 nM. This IC50 lies about 5.4-fold higher than the previous one.
As to `CNC(=O)c1c(-c2ccc(Oc3ccc(F)cc3)cc2)oc2cc(N(C3CCNCC3)S(C)(=O)=O)c(C3CC3)cc12` [Compound I-76], the IC50 worked out at 376 nM.
As for `CNC(=O)c1c(-c2ccc(Oc3ccc(F)cc3)cc2)oc2cc(N(CC(C)(C)O)S(C)(=O)=O)c(C3CC3)cc12` [Compound I-78], the concentration for half-maximal inhibition (IC50) was 55 nM.
To `CNC(=O)c1c(-c2ccc(Oc3ccc(F)cc3)cc2)oc2cc(N(CCNC(C)=O)S(C)(=O)=O)c(C3CC3)cc12` [Compound I-79] belongs 68 nM; to `CNC(=O)c1c(-c2ccc(Oc3ccc(F)cc3)cc2)oc2cc(N(CCNS(C)(=O)=O)S(C)(=O)=O)c(C3CC3)cc12` [Compound I-80], 179 nM.
The value for `CNC(=O)c1c(-c2ccc(Oc3ccc(F)cc3)cc2)oc2cc(N(CCSC)S(C)(=O)=O)c(C3CC3)cc12` [Compound I-81, 5-Cyclopropyl-2-[4-(4-fluoro-phenoxy)-phenyl]-6-[methanesulfonyl-(2-methylsulfanyl-ethyl)-amino]-benzofuran-3-carboxylic acid methylamide] was 16 nM.
On to `CNC(=O)c1c(-c2ccc(Oc3ccc(F)cc3)cc2)oc2cc(N(C3CCOC3)S(C)(=O)=O)c(C3CC3)cc12` (centres unmarked) [Compound I-84], for which the half-maximal inhibitory concentration (IC50) worked out at 155 nM.
The value for `CNC(=O)c1c(-c2ccc(Oc3ccccc3)cc2)oc2cc(-c3c(C)noc3C)c(C3CC3)cc12` [Compound I-85, 5-Cyclopropyl-6-(3,5-dimethyl-isoxazol-4-yl)-2-(4-phenoxy-phenyl)-benzofuran-3-carboxylic acid methylamide] was 344 nM; that for `CNC(=O)c1c(-c2ccc(Oc3ccccc3)cc2)oc2cc(C(C)=O)c(C3CC3)cc12` [Compound I-86] was 362 nM.
To `CNC(=O)c1c(-c2ccc(Oc3ccc(F)cc3)cc2)oc2cc(N(CC3(C)COC3)S(C)(=O)=O)c(C3CC3)cc12` [Compound I-87] belongs 134 nM.
`CNC(=O)c1c(-c2ccc(Oc3ccc(F)cc3)cc2)oc2cc(N(Cc3cncnc3)S(C)(=O)=O)c(C3CC3)cc12` [Compound I-88]: the IC50 stood at 26 nM.
`CNC(=O)c1c(-c2ccc(Oc3ccccc3)cc2)oc2cc(-c3ccc[nH]3)c(C3CC3)cc12` [Compound I-89, 5-Cyclopropyl-2-(4-phenoxy-phenyl)-6-(1H-pyrrol-2-yl)-benzofuran-3-carboxylic acid methylamide] showed an IC50 of 722 nM.
Molecule `CNC(=O)c1c(-c2ccc(Oc3ccccc3)cc2)oc2cc(C3CCCN3)c(C3CC3)cc12` (centres unmarked) [Compound I-90, 5-5-Cyclopropyl-2-(4-phenoxy-phenyl)-6-pyrrolidin-2-yl-benzofuran-3-carboxylic acid methylamideyclopropyl-2-(4-phenoxy-phenyl)-6-pyrrolidin-2-yl-benzofuran-3-carboxylic acid methylamide] returned an IC50 of 254 nM.
In turn, `CNC(=O)c1c(-c2ccc(Oc3ccc(F)cc3)cc2)oc2cc(N(C3CCNC3)S(C)(=O)=O)c(C3CC3)cc12` (centres unmarked) [Compound I-91, 5-Cyclopropyl-2-[4-(4-fluoro-phenoxy)-phenyl]-6-(methanesulfonyl-pyrrolidin-3-yl-amino)-benzofuran-3-carboxylic acid methylamide] came in with an IC50 of 24 nM.
To `CNC(=O)c1c(-c2ccc(Oc3ccc(F)cc3)cc2)oc2cc(N(CCCCN)S(C)(=O)=O)c(C3CC3)cc12` [Compound I-92] belongs 56 nM.
`CNC(=O)c1c(-c2ccc(Oc3ccc(F)cc3)cc2)oc2cc(N(C3CCN(S(C)(=O)=O)C3)S(C)(=O)=O)c(C3CC3)cc12` (centres unmarked) [Compound I-94, 5-cyclopropyl-2-[4-(4-fluoro-phenoxy)-phenyl]-6-[methanesulfonyl-(1-methanesulfonyl-pyrrolidin-3-yl)-amino]-benzofuran-3-carboxylic acid methylamide] showed an IC50 of 28 nM.
The value for `CNC(=O)c1c(-c2ccc(Oc3ccc(F)cc3)cc2)oc2cc(N(C(C)CN)S(C)(=O)=O)c(C3CC3)cc12` (centres unmarked) [Compound I-95] was 60 nM.
